In patent US20240358693A1, “METHODS OF TREATING PAIN” (Aisa Pharma, Inc., priority 2023, published 2024):

Experiments:
[1] = test system: plasma protein; settings: oral; cited from earlier work
[2] = oral dosing; cited from earlier work
[3] = test system: participants with SSc-RP; assay: Summary of data: dose response / overall response, Phase 2a study Part A; type: in vivo, human; settings: 20 mg dose group
Text: Table S provides a summary of data:

[4] = In vitro equilibrium dialysis (RED) protein binding, rat brain homogenate; type: in vitro ADME; settings: male, Sprague-Dawley, rat, pH 7.4
Method: (§1) Cilnidipine was tested by PsychoGenics using standard methodology in 96-well RED (Rapid Equilibrium Dialysis) plates from Thermo Fisher Scientific. Male Sprague-Dawley plasma and brain were obtained from BioIVT to provide the required protein matrix. Plasma was used undiluted, and brain homogenate was diluted 3 to 1 with PBS, pH 7.4. The protein matrix was spiked with the test compound dissolved in DMSO to achieve a 10 μM solution. Three chambers were used to allow for triplicate measures with a final DMSO concentration of <1% in each. The dialysate compartments of the 96-well dialysis chamber was loaded with PBS, pH 7.4 and the sample side was loaded with equal volume of the spiked protein matrix. The dialysis plate was then sealed and incubated at 37° C. for 4 h. After the incubation, samples were taken from each compartment. The buffer side was diluted with the appropriate matrix (plasma or brain homogenate) and the protein matrix side diluted with phosphate buffer. Resultant samples were then crashed in acetonitrile, centrifuged and the supernatant mixed with an aqueous solution providing samples for UPLC-MS/MS analysis. […] This control sample served as the basis for the determination of recovery. […] Samples were analyzed by UPLC-MS/MS using […] (MRM). The UPLC conditions consisted of a binary LC pump with autosampler, an InertSustain column (C18 column, 2.1×50 mm), utilizing gradient elution. The peak areas of the test compound in the buffer and test samples were used to calculate percent binding and recovery according to the following formulas: […]
(§2) The recovery determination serves as an indicator of reliability of the calculated protein binding value.
(§3) The characterization of protein binding is defined using the following ranges:
(§4) • Low 0 to 50% • Moderate 50 to 90% • High 90 to 99% • Very High>99%

[5] = test system: rat brain homogenate proteins; assay: as above; type: in vitro ADME
Method: as §1, §2, §3, §4

[6] = 10 mg Cilnidipine, Healthy Volunteers, single oral dose; cited from earlier work
[7] = test system: rat plasma proteins; assay: In vitro equilibrium dialysis (RED) protein binding, rat plasma; type: in vitro ADME
Method: as §1, §2, §3, §4

[8] = as above; type: in vitro ADME; settings: male, Sprague-Dawley, pH 7.4
Method: as §1, §2, §3, §4

[9] = target: Nav 1.7 sodium channel (Homo sapiens, UniProt Q15858); settings: 20 mg dose of cilnidipine; cited from earlier work
[10] = male, Sprague-Dawley, plasma, 4 h, 10 μM, pH 7.4

Chain of Nav 1.7 sodium channel (Q15858 whole entry): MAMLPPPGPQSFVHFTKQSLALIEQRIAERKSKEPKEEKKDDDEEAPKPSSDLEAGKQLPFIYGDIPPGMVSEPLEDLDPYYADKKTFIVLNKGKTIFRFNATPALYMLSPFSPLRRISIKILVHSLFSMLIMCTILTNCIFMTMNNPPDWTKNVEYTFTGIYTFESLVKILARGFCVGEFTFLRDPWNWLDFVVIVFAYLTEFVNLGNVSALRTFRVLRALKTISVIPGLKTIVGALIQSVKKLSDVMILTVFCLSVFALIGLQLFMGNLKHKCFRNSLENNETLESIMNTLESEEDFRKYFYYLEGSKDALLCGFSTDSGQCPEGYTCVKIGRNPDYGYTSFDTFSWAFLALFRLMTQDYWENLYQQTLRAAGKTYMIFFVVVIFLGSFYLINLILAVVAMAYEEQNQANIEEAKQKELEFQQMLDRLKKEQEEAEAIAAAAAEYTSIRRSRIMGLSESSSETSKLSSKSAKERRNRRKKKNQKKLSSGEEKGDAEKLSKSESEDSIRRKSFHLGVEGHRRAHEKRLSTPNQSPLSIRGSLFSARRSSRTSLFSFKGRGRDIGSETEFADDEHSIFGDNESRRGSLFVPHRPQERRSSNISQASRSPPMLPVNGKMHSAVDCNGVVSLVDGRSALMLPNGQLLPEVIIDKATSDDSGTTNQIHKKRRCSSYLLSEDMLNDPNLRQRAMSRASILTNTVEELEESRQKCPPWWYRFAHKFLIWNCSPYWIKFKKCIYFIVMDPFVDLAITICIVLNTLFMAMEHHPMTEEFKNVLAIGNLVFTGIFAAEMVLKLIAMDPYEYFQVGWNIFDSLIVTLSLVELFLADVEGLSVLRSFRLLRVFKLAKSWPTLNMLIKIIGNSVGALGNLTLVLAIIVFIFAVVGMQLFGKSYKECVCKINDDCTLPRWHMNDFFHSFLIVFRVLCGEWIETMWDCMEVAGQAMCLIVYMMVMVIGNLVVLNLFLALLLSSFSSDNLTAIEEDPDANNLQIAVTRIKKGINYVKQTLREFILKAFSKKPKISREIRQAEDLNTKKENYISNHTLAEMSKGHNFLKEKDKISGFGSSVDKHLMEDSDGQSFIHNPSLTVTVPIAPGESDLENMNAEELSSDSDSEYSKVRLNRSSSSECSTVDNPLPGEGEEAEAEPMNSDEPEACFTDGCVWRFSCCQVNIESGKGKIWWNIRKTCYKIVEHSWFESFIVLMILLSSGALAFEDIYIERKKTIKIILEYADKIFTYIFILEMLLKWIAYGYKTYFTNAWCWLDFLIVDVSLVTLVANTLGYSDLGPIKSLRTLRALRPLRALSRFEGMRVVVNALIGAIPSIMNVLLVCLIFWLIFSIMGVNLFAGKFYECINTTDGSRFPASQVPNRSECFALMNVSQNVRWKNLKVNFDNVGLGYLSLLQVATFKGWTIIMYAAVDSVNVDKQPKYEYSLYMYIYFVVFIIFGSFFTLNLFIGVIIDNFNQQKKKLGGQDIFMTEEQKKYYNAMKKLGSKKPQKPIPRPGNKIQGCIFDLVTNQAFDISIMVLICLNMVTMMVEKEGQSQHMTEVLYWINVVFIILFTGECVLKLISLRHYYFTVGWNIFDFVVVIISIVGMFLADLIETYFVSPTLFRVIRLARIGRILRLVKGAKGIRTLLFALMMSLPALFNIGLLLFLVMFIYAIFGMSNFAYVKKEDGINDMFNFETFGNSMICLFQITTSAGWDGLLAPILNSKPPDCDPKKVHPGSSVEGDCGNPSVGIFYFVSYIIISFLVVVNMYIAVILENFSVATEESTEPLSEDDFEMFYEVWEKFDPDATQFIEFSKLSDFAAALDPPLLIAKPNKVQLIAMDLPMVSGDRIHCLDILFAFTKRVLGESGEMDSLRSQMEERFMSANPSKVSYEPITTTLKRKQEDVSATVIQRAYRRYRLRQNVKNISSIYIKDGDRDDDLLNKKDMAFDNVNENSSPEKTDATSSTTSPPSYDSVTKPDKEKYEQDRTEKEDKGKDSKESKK

In the case of `COCCOC(=O)C1=C(C)NC(C)=C(C(=O)OC/C=C/c2ccccc2)C1c1cccc([N+](=O)[O-])c1` (stereo not drawn) [Cilnidipine, cilnidipine], the “protein bound (protein binding in plasma) when given orally” value [1] is listed as 98%, the “time to achieve maximal plasma concentrations (Tmax)” value [2] is listed as ≤ 2 h and the “Efficacy seen: overall response” value [3] is listed as “shows best overall”. The fraction unbound at 4 h, 10 μM ([4]; brain homogenate) was 0.008, the recovery at 4 h, 10 μM [4] was 93.7 ± 3.25% and the stability in brain [5] was “stable”. For the same compound, the binding to brain ([5]; male, Sprague-Dawley, rat, 4 h, 10 μM, pH 7.4) was 99.2%, the “Unbound (%)” value ([5]; male, Sprague-Dawley, rat, brain homogenate, 4 h, 10 μM, pH 7.4) was 0.8 ± 0.03% and the “CL/F, Mean” value [6] was 304.7 L/h. The binding to plasma ([7]; male, Sprague-Dawley, 4 h, 10 μM, pH 7.4) was 100%, the “Protein Binding (%)” value [7, 10] was 100.0 ± 0.00% and the “Unbound (%)” value [7, 10] was 0.0 ± 0.00%. The stability in plasma ([7]; plasma) was “stable”, the recovery at 4 h, 10 μM [8] was 92.9 ± 4.69% and the “inhibition of Nav 1.7 compared to an 1800 mg dose of gabapentin” value [9] was > 6 fold.
